Experiments:
[1] = target: T1, EGFR L858R/T790M/C797S (BaF3-LTC cells) (Homo sapiens, UniProt P00533, C797S/L858R/T790M); experiment: EGFR degradation HTRF assay, BaF3-LTC cells; type: cell-based; conditions: BaF3-LTC cells; for DC50: EGFR degradation, IC50 (DC50) from curve fit, read-out: DC50(nM) BaF3-LTC; for Dmax: maximum percentage of inhibition (degradation), read-out: Dmax (%) BaF3-LTC
T1 construct: expressed in transfected cells; host or cells: BaF3
In short: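 EGFR remaining after a 16 h, 37 °C exposure (8 doses, 5-fold steps from 10 uM final, 0.2% DMSO) was quantified by HTRF antibodies in cell lysate. Percent inhibition relative to DMSO control was fitted by four-parameter logistic to give DC50; Dmax denotes maximal degradation.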

[2] = tested on: EGFR Del19/T790M/C797S (H1975-clone #28); experiment: EGFR degradation HTRF assay, H1975-clone #28 DTC cells; type: cell-based; conditions: H1975 # 28 DTC cells; for DC50: EGFR degradation, IC50 (DC50) from curve fit, read-out: DC50(nM) H1975 # 28 DTC; for Dmax (%) H1975 # 28 DTC: maximum percentage of inhibition (degradation)
In short: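 The test uses H1975 clonal lines carrying lentiviral mutant EGFR with endogenous copies removed, treated 16h at 37° C., 5% CO2. EGFR left in the lysate is quantified by HTRF, and DC50 is derived from an 8-dose curve starting at 10 uM final.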

T1 sequence (P00533 25-1210 T790M/C797S/L858R): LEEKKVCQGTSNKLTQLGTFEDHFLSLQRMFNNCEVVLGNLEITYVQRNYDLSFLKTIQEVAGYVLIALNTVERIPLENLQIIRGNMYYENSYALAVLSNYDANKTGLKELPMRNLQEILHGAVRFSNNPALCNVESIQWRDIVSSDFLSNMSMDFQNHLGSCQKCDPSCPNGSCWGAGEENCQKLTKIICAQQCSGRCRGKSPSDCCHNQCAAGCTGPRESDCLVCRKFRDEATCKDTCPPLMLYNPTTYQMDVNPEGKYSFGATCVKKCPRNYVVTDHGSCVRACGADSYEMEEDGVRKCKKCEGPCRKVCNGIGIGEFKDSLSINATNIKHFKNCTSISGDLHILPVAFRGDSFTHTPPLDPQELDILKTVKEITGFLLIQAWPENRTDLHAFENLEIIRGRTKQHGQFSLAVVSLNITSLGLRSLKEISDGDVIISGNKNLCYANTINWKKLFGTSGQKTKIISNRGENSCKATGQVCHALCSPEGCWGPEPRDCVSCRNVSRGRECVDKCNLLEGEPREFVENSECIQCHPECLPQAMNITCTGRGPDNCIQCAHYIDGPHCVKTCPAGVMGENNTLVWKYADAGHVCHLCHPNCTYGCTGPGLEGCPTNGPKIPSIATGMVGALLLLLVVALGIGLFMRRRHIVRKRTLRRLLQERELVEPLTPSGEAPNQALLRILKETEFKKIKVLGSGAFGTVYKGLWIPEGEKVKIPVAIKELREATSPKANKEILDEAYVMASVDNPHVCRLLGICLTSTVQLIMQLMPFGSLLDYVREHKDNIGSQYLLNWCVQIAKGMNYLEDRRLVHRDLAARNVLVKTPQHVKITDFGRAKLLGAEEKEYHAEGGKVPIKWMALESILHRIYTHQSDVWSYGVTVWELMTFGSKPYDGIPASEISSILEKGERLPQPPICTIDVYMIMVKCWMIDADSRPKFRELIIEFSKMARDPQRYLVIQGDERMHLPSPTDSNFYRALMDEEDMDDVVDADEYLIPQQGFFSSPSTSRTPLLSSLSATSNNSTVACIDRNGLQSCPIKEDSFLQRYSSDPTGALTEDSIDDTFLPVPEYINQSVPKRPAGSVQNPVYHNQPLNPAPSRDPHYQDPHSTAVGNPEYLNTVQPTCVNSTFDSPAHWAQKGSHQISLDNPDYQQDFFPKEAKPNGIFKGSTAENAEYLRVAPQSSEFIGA

## CCOc1cc(N2CCC(N3CCN(CC4CN(c5cc(F)c([C@H]6CCC(=O)NC6=O)c(F)c5)C4)CC3)CC2)c(CC)cc1Nc1ncc(Br)c(Nc2ccc3nc(CC)ccc3c2P(C)(C)=O)n1 [Example 541, (R)-3-(4-(3-((4-(1-(4-((5-bromo-4-((5-(dimethylphosphoryl)-2-ethylquinolin-6-yl)amino)pyrimidin-2-yl)amino)-5-ethoxy-2-ethylphenyl)piperidin-4-yl)piperazin-1-yl)methyl)azetidin-1-yl)2,6-difluorophenyl)piperidine-2,6-dione]
[1]
  DC50: 17.8 nM
[2]
  DC50: 2.08 nM
  Dmax (%) H1975 # 28 DTC: 88.77%

## CCOc1cc(N2CCC(N3CCN(CC4CN(c5cc(F)cc6c5n(C)c(=O)n6C5CCC(=O)NC5=O)C4)CC3)CC2)c(CC)cc1Nc1ncc(Br)c(Nc2ccc3nc(CC)ccc3c2P(C)(C)=O)n1 (centres unmarked) [Example 467, 3-(4-(3-((4-(1-(4-((5-bromo-4-((5-(dimethylphosphoryl)-2-ethylquinolin-6-yl)amino)pyrimidin-2-yl)amino)-5-ethoxy-2-ethylphenyl)piperidin-4-yl)piperazin-1-yl)methyl)azetidin-1-yl)-6-fluoro-3-methyl-2-oxo-2,3-dihydro-1H-benzo[d]imidazol-1-yl)piperidine-2,6-dione]
[1]
  DC50: 12.5 nM
  Dmax: 91.3%
[2]
  DC50: 1.83 nM
  Dmax (%) H1975 # 28 DTC: 76.06%

## CCc1cc(Nc2ncc(Br)c(Nc3ccc4nc(C)ccc4c3P(C)(C)=O)n2)c(OC)cc1N1CCC(N2CCN(C3CCN(c4cc(F)c(C5CCC(=O)NC5=O)c(F)c4)CC3)CC2)CC1 (centres unmarked) [Example 694, 3-(4-(4-(4-(1-(4-((5-bromo-4-((5-(dimethylphosphoryl)-2-methylquinolin-6-yl)amino)pyrimidin-2-yl)amino)-2-ethyl-5-methoxyphenyl)piperidin-4-yl)piperazin-1-yl)piperidin-1-yl)-2,6-difluorophenyl)piperidine-2,6-dione]
[1]
  DC50: 16.1 nM
  Dmax: 92.2%
[2]
  DC50: 0.986 nM
  Dmax (%) H1975 # 28 DTC: 68.67%

## CCc1cc(Nc2ncc(Br)c(Nc3ccc4nc(C)ccc4c3P(C)(C)=O)n2)c(OC)cc1N1CCC(N2CCN(C(=O)[C@@H]3CN(c4cc(F)c([C@H]5CCC(=O)NC5=O)c(F)c4)CC3(C)C)CC2)CC1 [Example 662, (R)-3-(4-((S)-4-(4-(1-(4-((5-bromo-4-((5-(dimethylphosphoryl)-2-methylquinolin-6-yl)amino)pyrimidin-2-yl)amino)-2-ethyl-5-methoxyphenyl)piperidin-4-yl)piperazine-1-carbonyl)-3,3-dimethylpyrrolidin-1-yl)-2,6-difluorophenyl)piperidine-2,6-dione]
[1]
  DC50: 5.4 nM
  Dmax: 97%
[2]
  DC50: 2.23 nM
  Dmax (%) H1975 # 28 DTC: 89.14%

## CCOc1cc(N2CCC(N3CCN(CCCc4cc(OC)cc5c4oc(=O)n5C4CCC(=O)NC4=O)CC3)CC2)c(CC)cc1Nc1ncc(Br)c(Nc2ccc3nc(CC)ccc3c2P(C)(C)=O)n1 (centres unmarked) [Example 597, 3-(7-(3-(4-(1-(4-((5-bromo-4-((5-(dimethylphosphoryl)-2-ethylquinolin-6-yl)amino)pyrimidin-2-yl)amino)-5-ethoxy-2-ethylphenyl)piperidin-4-yl)piperazin-1-yl)propyl)-5-methoxy-2-oxobenzo[d]oxazol-3(2H)-yl)piperidine-2,6-dione]
[1]
  DC50: 28.2 nM
  Dmax: 90.1%
[2]
  DC50: 1.59 nM
  Dmax (%) H1975 # 28 DTC: 75.93%

## CCOc1cc(N2CCC(N3CCN(CCc4cc5oc(=O)n(C6CCC(=O)NC6=O)c5cc4Cl)CC3)CC2)c(CC)cc1Nc1ncc(Br)c(Nc2ccc3nc(CC)ccc3c2P(C)(C)=O)n1 (centres unmarked) [Example 627, 3-(6-(2-(4-(1-(4-((5-bromo-4-((5-(dimethylphosphoryl)-2-ethylquinolin-6-yl)amino)pyrimidin-2-yl)amino)-5-ethoxy-2-ethylphenyl)piperidin-4-yl)piperazin-1-yl)ethyl)-5-chloro-2-oxobenzo[d]oxazol-3(2H)-yl)piperidine-2,6-dione]
[1]
  DC50: 9.13 nM
  Dmax: 94.5%
[2]
  DC50: 1.23 nM
  Dmax (%) H1975 # 28 DTC: 76.26%

— patent US20230265116A1, “DEGRADATION OF (EGFR) BY CONJUGATION OF EGFR INHIBITORS WITH E3 LIGASE LIGAND AND METHODS OF USE” (BEIGENE, LTD., priority 2020, published 2023)
